Laboratory results published in patent US20220288051A1, “METHODS FOR TREATING CANCER USING SERIAL ADMINISTRATION OF E3 UBIQUITIN LIGASE DEGRADERS” (Dana-Farber Cancer Institute, Inc., priority 2019, published 2022).

How the values were obtained:
CDK9 = experiment: Immunoblotting of degronimid-treated MM.1S cells: CDK9; type: cell-based, human; conditions: 0.01-1 μM, 4 h
Method: (§1) MM.1S cells were seeded in 6-well plates at 3×10^6 cells/well (˜24 h prior to addition of drug). […] Cell pellets were thawed on ice, lysed using RIPA buffer (ThermoFisher) with protease/phosphatase inhibitor cocktail (Cell Signal Technology, Danvers, Mass.) by incubating on ice 30 min. The lysates were clarified by spinning at 10,000 g for 10 min at 4° C. and the concentration of the lysate was determined using BCA protocol (ThermoFisher). Samples were prepared for Western blot using LDS sample buffer (NuPage, Invitrogen, Carlsbad, Calif., USA) with sample reducing agent (NuPage, Invitrogen) and heated to 95° C. for 5 min. Samples were loaded (20 ug/sample) into Tris-acetate or Bis-Tris gels (NuPage, Invitrogen) and run as per kit instructions using appropriate running buffers. Gels were transferred as described (Matthews et al., 2015) onto PVDF membrane using SDS-based transfer buffer (NuPage, Invitrogen). Membranes were blocked (5% skim milk; or 5% bovine serum albumin in TBS-T) for at least 30 min then probed with primary antibodies overnight (4° C.). […] Each protein of interest (BRD2, BRD3, BRD4, c-myc and CDK9) was assessed in a separate gel and corresponding membrane (which was simultaneously incubated with antibodies for both the target protein of interest and GAPDH, to provide a loading control within the same blot). […]

BRD2 = target: T1, BRD2 (Homo sapiens, UniProt P25440); experiment: Immunoblotting of degronimid-treated MM.1S cells: BRD2; type: cell-based; conditions: 0.01-1 μM, 4 h
T1 construct: endogenous in cells; host or cells: MM.1S
Method: as §1

MM.1S cells [1] = experiment: Reverse phase protein array (RPPA) of treated MM.1S cells; type: cell-based, human
Method: MM.1S cells were seeded in 6-well plates (2×10^6/well) and cultured overnight prior to treatment. […] Lysates of these protein samples were processed by the Functional Proteomics RPPA Core Facility of the MD Anderson Cancer Center (Houston, Tex.), based on protocols and procedures outlined in the website of the facility (mdanderson.org/research/research-resources/core-facilities/functional-proteomicsrppa-core/rppa-process.html) and similarly to prior reports (Li et al., 2017). We mapped protein antibody labels to gene symbols available from Antibody Information and Protocols at MDACC (mdanderson.org/content/dam/mdanderson/documents/corefacilities/Functional%20Proteomics %20RPPA%20Core%20Facility/RPPA_Standard%20Ab%20List_Updated.xlsx). For data preprocessing, results from replicates of the same experimental run were averaged for each protein. The resulting matrix of RPPA data was further processed to generate log-transformed linear normalized data, linear normalized, and normalized median centered data. The differential protein expression analysis for dBET6- or JQ1-treated samples vs. controls were performed using the limma moderated t-statistic (Ritchie et al., 2015).

human MM cell lines = experiment: CTG / CS-BLI cell viability of human MM cell lines; type: cell-based
Method: (§2) Cell viability and growth of human MM cell lines were assessed using CellTitre-Glo (CTG) assay (Promega, Madison, Wis.) per kit instructions, or CS-BLI as described (Delmore et al., 2011). Briefly, cells were seeded (5×10^3 cells/well) into 96- or 384-well opaque plates, in supplemented media (40 or 50 uL) and incubated for 24 h prior to addition of drug. For co-culture experiments, HS27A cells were pre-seeded (5×10^3 cells/well) into each well in media prior (24 h) to the addition of MM cells. At each time point (24 h, 48 h, and/or 72 h) CTG reagent (10% volume) was added to each well, and plates were read using a microplate reader (BioTek Synergy 2, BioTek, Winooski, Va.).

c-Myc = experiment: Immunoblotting of degronimid-treated MM.1S cells: c-Myc; type: cell-based, human; conditions: 0.01-1 μM, 4 h
Method: as §1

patient-derived MM cells = experiment: Ex vivo treatment of patient-derived CD138+ tumor cells, CTG; type: cell-based, human; conditions: variable prior therapies
Method: Bone marrow aspirates (1-4 mL) from individuals with MM (newly diagnosed, smoldering, relapsed/refractory, maintenance treatment) or MGUS were collected after patients provided informed consent and based on tissue collection protocol approved by the Dana-Farber Cancer Institute Institutional Review Board. Samples were processed for separation of CD138+ plasma cells, using CD138-positive selection beads, and immunomagnetic separation, as per kit instructions (EasySep, StemCell, Cambridge, Mass.). Patient-derived tumor cells were cultured in RPMI 1640 medium supplemented with L-glutamine (Life Technologies, Carlsbad, Calif., USA), FBS (10%) (Gemini Bioproducts, Woodland, Calif.), 20 I.U./mL penicillin and 20 μg/mL streptomycin (Fisher Scientific, Springfield, N.J., USA) and hIL-6 (Thermo Fisher Scientific, Waltham, Mass., USA […]).
Samples were processed for separation of CD138+ plasma cells, using CD138-positive selection beads, and immunomagnetic separation, as per kit instructions (EasySep, StemCell, Cambridge, Mass.). […] Viability was assessed using CTG, as described (24 h, 48 h, 72 h) and each treatment was repeated up to 3 times (n=3 biological replicates).

[2] = tested on: MM cells cultured in the presence of bone-marrow stromal cells; experiment: CS-BLI viability in co-culture with bone marrow stromal cells; type: cell-based, human; conditions: co-culture vs MM cells alone
Method: as §2

MM.1S cells [3] = experiment: Assessment of apoptosis, Annexin V/PI flow cytometry; type: cell-based, human
Method: For the assessment of apoptosis, MM.1S cells were seeded into 6-well plates (2×10^6 cells/well) in medium supplemented with 10% FBS and penicillin/streptomycin (3.2 mL) 24 h prior to treatment. Cells were treated with dBET6, JQ1, or vehicle and harvested prior to staining with Annexin V-FITC and PI (BD, Bedford, Mass.). Apoptosis was assessed immediately using flow cytometry (LSR II, BD, Bedford, Mass.)

human MM.1S cells = experiment: Xenograft model of diffuse MM lesions; type: in vivo, NSG mice; conditions: 20 mg/kg, QD, 12 days
Method: ii. Xenograft model of diffuse MM lesions: Luciferase-positive MM.1S cells (1×106 Luc-GFP-MM.1S) were injected via the tail vein (IV) into NSG mice. […] BLI was undertaken weekly and mice were euthanized when moribund or upon signs of hind-limb paralysis.

BRD3 = target: T2, BRD3 (Homo sapiens, UniProt Q15059); experiment: Immunoblotting of degronimid-treated MM.1S cells: BRD3; type: cell-based; conditions: 0.01-1 μM, 4 h
T2 construct: endogenous in cells; host or cells: MM.1S
Method: as §1

T2 sequence (Q15059 whole entry): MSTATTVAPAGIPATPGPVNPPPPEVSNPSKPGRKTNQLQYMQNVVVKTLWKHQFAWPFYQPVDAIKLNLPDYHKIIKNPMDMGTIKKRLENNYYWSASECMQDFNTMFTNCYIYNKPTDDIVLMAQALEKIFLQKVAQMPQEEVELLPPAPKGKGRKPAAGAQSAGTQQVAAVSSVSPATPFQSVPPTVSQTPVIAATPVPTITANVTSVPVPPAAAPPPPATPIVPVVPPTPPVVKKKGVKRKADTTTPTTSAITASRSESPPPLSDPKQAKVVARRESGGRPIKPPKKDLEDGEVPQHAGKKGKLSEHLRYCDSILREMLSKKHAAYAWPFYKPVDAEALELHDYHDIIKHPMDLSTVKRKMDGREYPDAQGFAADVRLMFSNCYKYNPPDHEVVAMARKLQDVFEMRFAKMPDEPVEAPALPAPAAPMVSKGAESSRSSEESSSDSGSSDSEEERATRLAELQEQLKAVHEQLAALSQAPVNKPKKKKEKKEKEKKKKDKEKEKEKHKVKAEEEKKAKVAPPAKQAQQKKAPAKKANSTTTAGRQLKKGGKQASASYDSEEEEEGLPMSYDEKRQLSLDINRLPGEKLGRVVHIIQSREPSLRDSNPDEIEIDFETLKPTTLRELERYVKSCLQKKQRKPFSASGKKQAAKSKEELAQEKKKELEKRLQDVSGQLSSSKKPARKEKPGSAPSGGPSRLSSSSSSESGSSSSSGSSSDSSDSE
T1 sequence (P25440 whole entry): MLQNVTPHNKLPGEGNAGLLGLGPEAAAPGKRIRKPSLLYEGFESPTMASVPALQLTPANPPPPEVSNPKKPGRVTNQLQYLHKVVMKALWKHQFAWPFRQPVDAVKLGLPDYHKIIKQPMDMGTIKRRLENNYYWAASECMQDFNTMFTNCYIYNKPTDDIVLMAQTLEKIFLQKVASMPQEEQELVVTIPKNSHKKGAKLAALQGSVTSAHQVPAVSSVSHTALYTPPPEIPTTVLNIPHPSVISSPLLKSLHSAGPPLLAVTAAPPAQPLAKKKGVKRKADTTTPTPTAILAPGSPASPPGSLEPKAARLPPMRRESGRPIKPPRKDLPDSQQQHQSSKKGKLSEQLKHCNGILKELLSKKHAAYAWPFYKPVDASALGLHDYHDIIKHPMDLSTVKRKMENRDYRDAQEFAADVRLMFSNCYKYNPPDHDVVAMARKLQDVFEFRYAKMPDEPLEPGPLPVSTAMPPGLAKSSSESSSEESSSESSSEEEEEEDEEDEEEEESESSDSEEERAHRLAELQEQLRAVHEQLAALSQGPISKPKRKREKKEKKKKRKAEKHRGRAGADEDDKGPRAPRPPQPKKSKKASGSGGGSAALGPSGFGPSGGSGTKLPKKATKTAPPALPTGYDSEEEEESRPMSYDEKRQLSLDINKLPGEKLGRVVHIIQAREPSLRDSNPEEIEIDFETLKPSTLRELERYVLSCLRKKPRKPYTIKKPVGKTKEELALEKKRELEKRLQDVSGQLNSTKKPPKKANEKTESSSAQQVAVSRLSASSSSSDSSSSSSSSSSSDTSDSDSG

Compound	CDK9 protein levels (CDK9)	BRD2 protein levels (BRD2)	protein changes at 4 hrs (MM.1S cells [1]; MM.1S, dBET6 0.1 μM, JQ1 0.5 μM, 4 hrs)	RPPA expression of pro-survival and pro-apoptotic proteins (MM.1S cells [1]; MM.1S, dBET6 0.1 μM, 4 h and 18 h)	protein changes at later time-points (MM.1S cells [1]; MM.1S, dBET6 0.1 μM, later time-points)	suppression of c-MYC at protein level (MM.1S cells [1]; dBET6 vs JQ1-treated MM.1S cells)	suppression of MM cell viability (human MM cell lines; MM.1S, RPMI-8226, JJN3, 48 h, CTG or CS-BLI, vs JQ1)	in vitro anti-MM activity (human MM cell lines; human MM cell lines, dBET6 compared to dBET1 or JQ1)	loss of viability (human MM cell lines; larger panel of human MM cell lines, 48 h)	c-Myc protein levels (c-Myc)	response of patient-derived cells (patient-derived MM cells)	change in responsiveness in the presence of bone-marrow stromal cells [2]	exposure prior to drug washout sufficient to commit cells to cell death (MM.1S cells [3]; MM.1S cells, Annexin V/PI staining)	pro-apoptotic response (MM.1S cells [3]; human MM.1S cells, 0.01 μM or 0.05 μM)	overall survival (human MM.1S cells)	tumor burden measured by BLI vs vehicle (human MM.1S cells)	BRD3 protein levels (BRD3)
CC(C)(C)c1cnc(CSc2cnc(NC(=O)C3CCN(CC(=O)NCCOCCOCCOCCNc4cccc5c4C(=O)N(C4CCC(=O)NC4=O)C5=O)CC3)s2)o1 (centres unmarked) [Thal-SNS-032]	causes degradation of CDK9	–	–	–	–	–	–	–	–	–	–	–	–	–	–	–	–
Cc1sc2c(c1C)C(c1ccc(Cl)cc1)=N[C@@H](CC(=O)NCCCCCCCCNC(=O)COc1cccc3c1C(=O)N(C1CCC(=O)NC1=O)C3=O)c1nnc(C)n1-2 (some centres unmarked) [dBET6]	–	rapid and robust depletion	causes downregulation of Mcl-1, Cyclin B1 (not shown), and BRD4	reduce the expression of key pro-survival proteins, such as MCL-1, c-MYC, and pS6, while leading to the upregulation of cell cycle inhibitor, p21, and cleavage of executioner caspases 3 and 7	suppression of Ser240/Ser244 S6 phosphorylation; induction of p21, and increase in cleaved caspase3/7	more pronounced suppression of c-MYC	more pronounced suppression of MM cell viability than JQ1	more potent in vitro anti-MM activity of dBET6 compared to dBET1 or JQ1	significant loss of viability in all lines tested	rapid and robust depletion	dose-dependent response	No major changes in dBET6 responsiveness	≤ 4 h	dose- and time-dependent pro-apoptotic response	only minimal overall survival advantage	significantly lower tumor burden	rapid and robust depletion
